Source: US20060069132A1, “Azolecarboxamide herbicides” (priority 2004, published 2006)

Experiments:
[1] = test system: small flower umbrella sedge; test: Test B flooded paddy test; assay type: in vivo, Cyperus difformis; settings: 1000 g ai/ha, visual rating, scale 0 to 100 (0 no effect, 100 complete control), 13 to 15 days
How it was run: (§1)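 Visual ratings, 0 (no effect) to 100 (complete control), made versus controls after 13–15 d greenhouse. Paddy plants treated at 2-leaf stage; postemergence plants at 1- to 4-leaf stage, 2–18 cm tall.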

pigweed = test: Test B pre-/postemergence herbicide test; assay type: in vivo, Amaranthus retroflexus; settings: for Pigweed plant response rating: postemergence, visual rating, scale 0 (no effect) to 100 (complete control)
How it was run: (§2)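 Test chemicals in a non-phytotoxic solvent mixture with surfactant were applied preemergence to seeded species and postemergence to plants 2-18 cm tall (1- to 4-leaf stage); rice and barnyardgrass were also tested in a flooded paddy at the 2-leaf stage. Visual rating versus controls after 13-15 days in greenhouse, scale 0 (no effect) to 100 (complete control).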

velvetleaf = test: Test B pre-/postemergence herbicide test; assay type: in vivo, Abutilon theophrasti; settings: for Velvetleaf plant response rating: postemergence, visual rating, scale 0 (no effect) to 100 (complete control)
How it was run: as §2

cocklebur = test: Test B pre-/postemergence herbicide test; assay type: in vivo, Xanthium strumarium; settings: for Cocklebur plant response rating: postemergence, visual rating, scale 0 (no effect) to 100 (complete control)
How it was run: (§3)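 Visual rating, 0 (no effect) to 100 (complete control), versus untreated controls after 13–15 d in greenhouse. Pre- and postemergence applications (postemergence plants 2–18 cm, 1–4 leaves); flooded paddy arm at 2-leaf stage. Compounds in non-phytotoxic solvent plus surfactant.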

large crabgrass = test: Test B pre-/postemergence herbicide test; assay type: in vivo, Digitaria sanguinalis; settings: for Crabgrass, Large plant response rating: postemergence, visual rating, scale 0 (no effect) to 100 (complete control)
How it was run: as §2

corn = test: Test B pre-/postemergence herbicide test; assay type: in vivo, Zea mays; settings: for Corn plant response rating: postemergence, visual rating, scale 0 (no effect) to 100 (complete control)
How it was run: as §2

Surinam grass = test: Test B pre-/postemergence herbicide test; assay type: in vivo, Urochloa decumbens; settings: for Surinam Grass plant response rating: postemergence, visual rating, scale 0 (no effect) to 100 (complete control)
How it was run: as §2

wild oat = test: Test B postemergence herbicide test; assay type: in vivo, Avena fatua; settings: postemergence, visual rating, scale 0 (no effect) to 100 (complete control)
How it was run: (§4)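 Formulated test chemicals went onto postemergence plants measuring 2 to 18 cm, at one to four leaves. For the paddy assay, species had reached two leaves. Scoring took place 13–15 days later by eye, relative to untreated plants, using 0 for no effect up to 100 for full control.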

rice = test: Test B flooded paddy test; assay type: in vivo, Oryza sativa; settings: 1000 g ai/ha, visual rating, scale 0 to 100 (0 no effect, 100 complete control), 13 to 15 days
How it was run: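 Paddy species grown to the 2-leaf stage under flooding; blackgrass sprayed postemergence at 2–18 cm (1- to 4-leaf stage). Plants kept in a greenhouse for 13 to 15 days, then visually rated against controls on 0 (no effect) to 100 (complete control).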

barnyardgrass = test: Test B pre-/postemergence herbicide test; assay type: in vivo, Echinochloa crus-galli; settings: for Barnyardgrass plant response rating: postemergence, visual rating, scale 0 (no effect) to 100 (complete control)
How it was run: as §3

wheat = test: Test B postemergence herbicide test; assay type: in vivo, Triticum aestivum; design: key to Wheat plant response rating: 0 = no effect, 100 = complete control; settings: postemergence, visual rating, scale 0 (no effect) to 100 (complete control)
How it was run: as §4

morningglory = test: Test B pre-/postemergence herbicide test; assay type: in vivo, Ipomoea coccinea; settings: for Morningglory plant response rating: postemergence, visual rating, scale 0 (no effect) to 100 (complete control)
How it was run: as §3

blackgrass = test: Test B postemergence herbicide test; assay type: in vivo, Alopecurus myosuroides; settings: postemergence, visual rating, scale 0 (no effect) to 100 (complete control)
How it was run: as §1

ducksalad = test: Test B flooded paddy test; assay type: in vivo, Heteranthera limosa; settings: 1000 g ai/ha, visual rating, scale 0 to 100 (0 no effect, 100 complete control), 13 to 15 days
How it was run: as §1

giant foxtail = test: Test B pre-/postemergence herbicide test; assay type: in vivo, Setaria faberi; settings: for Foxtail, Giant plant response rating: postemergence, visual rating, scale 0 (no effect) to 100 (complete control)
How it was run: as §2

[2] = 125 g ai/ha, 0 = no effect, 100 = complete control, preemergence
[3] = 500 g ai/ha, visual rating 0-100, 0 no effect, 100 complete control, preemergence

For `CCN(CC)C(=O)c1cccc(NC(=O)c2sc(C(C)(C)C)nc2C)c1` [Compound 199], the “Sedge, Umbrella plant response rating” value [1] was 10, the “Pigweed plant response rating (0 to 100 scale)” value (pigweed; [2]) was 90 and the “Plant response rating, Pigweed” value (pigweed; [3]) was 100. For the same compound, the “Pigweed plant response rating” value (pigweed; 125 g ai/ha) was 10, the “Pigweed plant response rating” value (pigweed; 500 g ai/ha) was 40 and the “Velvetleaf plant response rating (0 to 100 scale)” value (velvetleaf; [2]) was 0. The “Plant response rating, Velvetleaf” value (velvetleaf; [3]) was 60, the “Velvetleaf plant response rating” value (velvetleaf; 125 g ai/ha) was 20 and the “Velvetleaf plant response rating” value (velvetleaf; 500 g ai/ha) was 30. For the same compound, the “Cocklebur plant response rating (0 to 100 scale)” value (cocklebur; [2]) was 0, the “Plant response rating, Cocklebur” value (cocklebur; [3]) was 0 and the “Cocklebur plant response rating” value (cocklebur; 125 g ai/ha) was 10. The “Cocklebur plant response rating” value (cocklebur; 500 g ai/ha) was 60, the “Crabgrass, Large plant response rating (0 to 100 scale)” value (large crabgrass; [2]) was 90 and the “Plant response rating, Crabgrass, Large” value (large crabgrass; [3]) was 100. For the same compound, the “Crabgrass, Large plant response rating” value (large crabgrass; 125 g ai/ha) was 10, the “Crabgrass, Large plant response rating” value (large crabgrass; 500 g ai/ha) was 10 and the “Corn plant response rating (0 to 100 scale)” value (corn; [2]) was 0. The “Plant response rating, Corn” value (corn; [3]) was 10, the “Corn plant response rating” value (corn; 125 g ai/ha) was 10 and the “Corn plant response rating” value (corn; 500 g ai/ha) was 20. The “Surinam Grass plant response rating (0 to 100 scale)” value (Surinam grass; [2]) was 10, the “Plant response rating, Surinam Grass” value (Surinam grass; [3]) was 70 and the “Surinam Grass plant response rating” value (Surinam grass; 125 g ai/ha) was 10. For the same compound, the “Surinam Grass plant response rating” value (Surinam grass; 500 g ai/ha) was 20, the “Oat, Wild plant response rating” value (wild oat; 125 g ai/ha) was 10 and the “Oat, Wild plant response rating” value (wild oat; 500 g ai/ha) was 10. The “Rice plant response rating” value (rice) was 20, the “Barnyardgrass plant response rating (0 to 100 scale)” value (barnyardgrass; [2]) was 20 and the “Plant response rating, Barnyardgrass” value (barnyardgrass; [3]) was 90. The “Barnyardgrass plant response rating” value (barnyardgrass; 125 g ai/ha) was 0, the “Barnyardgrass plant response rating” value (barnyardgrass; 500 g ai/ha) was 10 and the “Wheat plant response rating” value (wheat; 125 g ai/ha) was 0. The “Wheat plant response rating” value (wheat; 500 g ai/ha) was 10, the “Morningglory plant response rating (0 to 100 scale)” value (morningglory; [2]) was 0 and the “Plant response rating, Morningglory” value (morningglory; [3]) was 60. For the same compound, the “Morningglory plant response rating” value (morningglory; 125 g ai/ha) was 40, the “Morningglory plant response rating” value (morningglory; 500 g ai/ha) was 60 and the “Blackgrass plant response rating” value (blackgrass; 125 g ai/ha) was 0. For the same compound, the “Blackgrass plant response rating” value (blackgrass; 500 g ai/ha) was 10, the “Ducksalad plant response rating” value (ducksalad) was 0 and the “Foxtail, Giant plant response rating (0 to 100 scale)” value (giant foxtail; [2]) was 10. For the same compound, the “Plant response rating, Foxtail, Giant” value (giant foxtail; [3]) was 100, the “Foxtail, Giant plant response rating” value (giant foxtail; 125 g ai/ha) was 10 and the “Foxtail, Giant plant response rating” value (giant foxtail; 500 g ai/ha) was 10.
